Experimental data from patent US20140024663A1, “ATB(0,+) AMINO ACID TRANSPORTER AS A DRUG TARGET FOR TREATMENT OF ESTROGEN RECEPTOR-POSITIVE BREAST CANCER” (GEORGIA HEALTH SCIENCES UNIVERSITY RESEARCH INSTITUTE, INC., priority 2012, published 2014).

Key:
Type in all cases: cell-based, human
[1] = system: MB231 cells; assay: Cell death by propidium iodide staining and FACS cell cycle analysis; details: MB231, α-MT 2.5 mM and 3-MA 10 mM, either alone or together, 48 h
Procedure: (§1) FIGS. 9A to 9D. Influence of α-MT on mTOR activity In FIG. 9A, MCF7 and MB231 cells were treated without or with α-MT (2.5 mM) for 24 h, 48 h, or 72 h, and then the cell lysates were used for western blot. Influence of α-MT with or without 3-MA on cell death. In FIG. 9B, MCF7, MB231, and MCF10A cells were treated for 48 h without or with α-MT (2.5 mM), 3-MA (10 mM), or α-MT (2.5 mM) plus 3-MA (10 mM), and then analyzed for cell death by propidium iodide (PI) staining and FACS-based cell cycle analysis. In FIG. 9C, MCF7 cells were treated for 48 h without or with α-MT (2.5 mM), 3-MA (10 mM), or α-MT (2.5 mM) plus 3-MA (10 mM), and then analyzed for apoptotic cell death by annexin V labeling. In FIG. 9D, MCF7 and MB231 cells were treated without or with 2.5 mM α-MT for 24 h, 48 h, or 72 h. Cell lysates were then used for western blot analysis of lamin A degradation product using an antibody that recognizes specifically the proteolytic cleavage product. β-Actin was used as an internal control.
(§2) Apoptosis assay. Fluorescence-activated cell sorting (FACS) was used to monitor cell death. MCF7 cells were treated with or without α-MT, 3-MA, or α-MT plus 3-MA. Control and treated cells were then fixed in 50% ethanol, treated with 0.1% sodium citrate, 1 mg/ml RNase A, and 50 μg/ml propidium iodide, and then subjected to FACS analysis (FACS Caliber, Becton Dickinson). FITC-labeled annexin V was used to differentiate apoptotic cell death from necrotic cell death.

[2] = system: MCF10A cells; assay: as above; details: α-MT 2.5 mM and 3-MA 10 mM, either alone or together, 48 h
Procedure: as §1, §2

[3] = system: MCF7 cells; assay: Analysis of autophagy (LC3 localization, electron microscopy, autophagosomal proteolysis, GFP-LC3); details: MCF7, α-MT 2.5 mM, 48 h
Procedure: FIGS. 6A to 6C. Effects of SLC6A14 blockade with α-MT in breast cancer cells. In FIG. 6A, MCF10A (a non-malignant mammary epithelial cell line), MCF7 (an ER-positive breast cancer cell line), and MB231 (an ER-negative breast cancer cell line) cells were treated with or without 2.5 mM α-MT for 24, 48, or 72 h and then used for analysis of asparagine synthetase (ASNS) and CHOP mRNA levels. In FIG. 6B, MCF7, MB231 and MCF10A cells were treated with or without 2.5 mM α-MT for 48 h and then used for immunocytochemical analysis of the constitutively expressed LC-3. In FIG. 6C, MCF7 cells were treated with (“b” and “c”) or without (“a”) α-MT (2.5 mM) for 48 h and then used for electron microscopy. Arrows indicate sequestration of cytoplasm and organelles in pre-autophagosomes and autophagosome, and the asterisk indicates condensed chromatin. N, nucleus.
FIGS. 7A and 7B. Induction of autophagy in MCF7 cells by α-MT. […] The concentrations of α-MT and 3-MA, when present, were 2.5 mM and 10 mM. The treatment time was 48 h. The extent of proteolysis was determined by the radioactivity present in the protein-free supernatant. […] In FIG. 7B, MCF7 cells were transfected with an GFP-LC3 expression plasmid, and 24 h later, the cells were treated with or without α-MT (2.5 mM) in the presence or absence of 3-MA (10 mM) for 48 h. At the end of the treatment, cells were fixed, and the percent of cells with punctate localization of the ectopically expressed GFP-LC3 was quantified. “a” represents compared to control; “b” represents compared to treatment with α-MT alone; and “c” represents compared to treatment with […]; *, p<0.001.
Analysis of autophagy. Autophagy was analyzed as described previously (Periyasamy-Thandavan et al., 2010, Autophagy; 6:19-35; and Samaddar et al., 2008, Mol Cancer Ther; 7:2977-2987) by monitoring the localization pattern of constitutively expressed LC3 as well as that of ectopically expressed GFP-LC3. In the case of the constitutively expressed LC3, cells were treated without or with α-MT, and then used for immunocytochemical analysis of LC3 localization pattern. For ectopically expressed LC3, cells were transfected with a GFP-LC3 expression plasmid. Briefly, cells were plated on a coverslip to reach ˜50% confluence and transfection of these cells was done with 1 μg of the plasmid using FuGENE transfection reagent (Roche, Nutley, N.J.). […] At the end of the treatment, cells were fixed with 4% paraformaldehyde and examined by fluorescence microscopy to count the number of cells with punctate GFP-LC3. Autophagosomal proteolysis was quantified as described previously (Periyasamy-Thandavan et al., 2010, Autophagy; 6:19-35). […]

[4] = system: MCF10A cells; assay: Analysis of autophagy (LC3 localization); details: α-MT 2.5 mM, 48 h
Procedure: FIGS. 6A to 6C. Effects of SLC6A14 blockade with α-MT in breast cancer cells. In FIG. 6A, MCF10A (a non-malignant mammary epithelial cell line), MCF7 (an ER-positive breast cancer cell line), and MB231 (an ER-negative breast cancer cell line) cells were treated with or without 2.5 mM α-MT for 24, 48, or 72 h and then used for analysis of asparagine synthetase (ASNS) and CHOP mRNA levels. In FIG. 6B, MCF7, MB231 and MCF10A cells were treated with or without 2.5 mM α-MT for 48 h and then used for immunocytochemical analysis of the constitutively expressed LC-3. In FIG. 6C, MCF7 cells were treated with (“b” and “c”) or without (“a”) α-MT (2.5 mM) for 48 h and then used for electron microscopy. […]
Analysis of autophagy. Autophagy was analyzed as described previously (Periyasamy-Thandavan et al., 2010, Autophagy; 6:19-35; and Samaddar et al., 2008, Mol Cancer Ther; 7:2977-2987) by monitoring the localization pattern of constitutively expressed LC3 as well as that of ectopically expressed GFP-LC3. […] At the end of the treatment, cells were fixed with 4% paraformaldehyde and examined by fluorescence microscopy to count the number of cells with punctate GFP-LC3. Autophagosomal proteolysis was quantified as described previously (Periyasamy-Thandavan et al., 2010, Autophagy; 6:19-35). […]

[5] = system: MCF7 cells; assay: Apoptotic cell death by annexin V labeling; details: MCF7, single agent (α-MT 2.5 mM or 3-MA 10 mM), 48 h
Procedure: as §1, §2

Which “effect on cell death” value [1] does the source give for `CC(N)(Cc1c[nH]c2ccccc12)C(=O)O` (racemic) [α-MT, α-methyl-DL-tryptophan] here?
Its value is “very little, if any, effect”.

And the “effect on cell death” value [2]?
Its value is “very little, if any, effect”.

What about the “autophagosomal proteolysis of 14C-labeled proteins” value [3] of the same molecule?
Its value is “increased proteolysis”.

What about the “autophagy (punctate localization of constitutively expressed LC3, autophagosomes in electron microscopy)” value [3] of the same molecule?
Its value is “induced autophagy”.

What about the “autophagy (LC3 localization)” value [4] of the same molecule?
Its value is “did not undergo autophagy”.

And the “apoptotic cell death by annexin V labeling” value [5]?
Its value is “induced apoptotic cell death”.
